Laboratory results reported in the NIST ThermoML archive (doi:10.1016/j.tca.2011.11.009).

Details: Liquid, Vibrating tube method

CCCC[n+]1ccc(C)cc1.N#C[S-] [1-butyl-4-methylpyridinium thiocyanate]
mass density [kg/m3]
Details | 298.15 K | 308.15 K | 318.15 K | 328.15 K | 338.15 K
100 kPa | 1061.57 | 1055.36 | 1049.83 | 1044.2 | 1037.12
200 kPa | 1061.61 | 1055.39 | 1049.88 | 1044.23 | 1037.15
300 kPa | 1061.64 | 1055.43 | 1049.93 | 1044.29 | 1037.18
400 kPa | 1061.66 | 1055.48 | 1049.96 | 1044.33 | 1037.18
500 kPa | 1061.7 | 1055.53 | 1050.03 | 1044.34 | 1037.24
600 kPa | 1061.74 | 1055.59 | 1050.06 | 1044.41 | 1037.29
800 kPa | 1061.81 | 1055.69 | 1050.13 | 1044.45 | 1037.35
1000 kPa | 1061.88 | 1055.77 | 1050.2 | 1044.55 | 1037.43
2000 kPa | 1062.24 | 1056.11 | 1050.6 | 1044.93 | 1037.83
4000 kPa | 1062.95 | 1056.86 | 1051.37 | 1045.71 | 1038.61
6000 kPa | 1063.68 | 1057.62 | 1052.12 | 1046.49 | 1039.4
8000 kPa | 1064.4 | 1058.35 | 1052.88 | 1047.26 | 1040.18
10000 kPa | 1065.1 | 1059.08 | 1053.61 | 1048.01 | 1040.98

CCCCn1cc[n+](C)c1.N#C[S-] [1-butyl-3-methylimidazolium thiocyanate]
mass density [kg/m3]
Details | 298.15 K | 308.15 K | 318.15 K | 328.15 K | 338.15 K
100 kPa | 1070.18 | 1063.9 | 1058.33 | 1052.54 | 1046.94
200 kPa | 1070.23 | 1063.94 | 1058.37 | 1052.59 | 1047.03
300 kPa | 1070.25 | 1064.03 | 1058.41 | 1052.62 | 1047.05
400 kPa | 1070.29 | 1064.09 | 1058.45 | 1052.69 | 1047.1
500 kPa | 1070.32 | 1064.13 | 1058.5 | 1052.69 | 1047.14
600 kPa | 1070.36 | 1064.18 | 1058.54 | 1052.75 | 1047.17
800 kPa | 1070.43 | 1064.29 | 1058.61 | 1052.82 | 1047.27
1000 kPa | 1070.5 | 1064.35 | 1058.68 | 1052.94 | 1047.33
2000 kPa | 1070.88 | 1064.73 | 1059.07 | 1053.31 | 1047.74
4000 kPa | 1071.63 | 1065.48 | 1059.88 | 1054.11 | 1048.56
6000 kPa | 1072.37 | 1066.26 | 1060.63 | 1054.91 | 1049.39
8000 kPa | 1073.11 | 1067.02 | 1061.43 | 1055.68 | 1050.19
10000 kPa | 1073.83 | 1067.77 | 1062.18 | 1056.48 | 1050.99

CCn1cc[n+](C)c1.N#C[S-] [1-ethyl-3-methylimidazolium thiocyanate]
mass density [kg/m3]
Details | 298.15 K | 308.15 K | 318.15 K | 328.15 K | 338.15 K
100 kPa | 1116.69 | 1110.39 | 1104.8 | 1098.18 | 1092.87
200 kPa | 1116.71 | 1110.42 | 1104.83 | 1098.22 | 1092.93
300 kPa | 1116.72 | 1110.47 | 1104.87 | 1098.27 | 1092.97
400 kPa | 1116.77 | 1110.5 | 1104.91 | 1098.31 | 1093
500 kPa | 1116.82 | 1110.54 | 1104.97 | 1098.32 | 1093.05
600 kPa | 1116.86 | 1110.59 | 1105 | 1098.38 | 1093.11
800 kPa | 1116.92 | 1110.68 | 1105.04 | 1098.43 | 1093.18
1000 kPa | 1117 | 1110.74 | 1105.13 | 1098.54 | 1093.24
2000 kPa | 1117.35 | 1111.1 | 1105.5 | 1098.87 | 1093.64
4000 kPa | 1118.04 | 1111.81 | 1106.24 | 1099.64 | 1094.38
6000 kPa | 1118.74 | 1112.53 | 1106.96 | 1100.38 | 1095.15
8000 kPa | 1119.43 | 1113.24 | 1107.68 | 1101.1 | 1095.91
10000 kPa | 1120.11 | 1113.94 | 1108.39 | 1101.83 | 1096.65
